Assay results from ChEMBL document CHEMBL5724914, “Linking interpersonal differences in gut microbiota composition and drug biotransformation activity” (2024).

Columns and labels:
[1] = human gut metagenome, 24 h, 2 µM
[2] = The drug is tested on Z-021 corresponding to metagenome with ENA study accession number: PRJEB37062 and ENA sample accession number: ERS12561820 for biotransformation under anaerobic condition. The drug concentrations were measured over 9 timepoints collected between 0 and 24 hours of incubation by liquid-chromatography-coupled mass spectrometry (LC–MS); settings: 2 µM
[3] = human gut metagenome, 24 h, 2 µM; remark: listed apart in the source
[4] = (§1) The drug is tested on WLS-052 corresponding to human gut metagenome with ENA study accession number: PRJEB37062 and ENA sample accession number: ERS12561747 for biotransformation under anaerobic condition. The drug concentrations were measured over 9 timepoints collected between 0 and 24 hours of incubation by liquid-chromatography-coupled mass spectrometry (LC–MS); settings: 2 µM
[5] = as §1, with “WLS-073” for “WLS-052”, “ERS12561749” for “ERS12561747”; settings: 2 µM
[6] = human gut metagenome, 24 h, 2 µM; remark: listed apart in the source
[7] = human gut metagenome, 24 h, 2 µM; remark: listed apart in the source
[8] = as §1, with “Z-022” for “WLS-052”, “mouse” for “human”, “ERS12561821” for “ERS12561747”; settings: 2 µM
[9] = as §1, with “WLS-027” for “WLS-052”, “ERS12561744” for “ERS12561747”; settings: 2 µM
[10] = human gut metagenome, 24 h, 2 µM; remark: listed apart in the source
[11] = human gut metagenome, 24 h, 2 µM; remark: listed apart in the source
[12] = human gut metagenome, 24 h, 2 µM; remark: listed apart in the source
[13] = as §1, with “WLS-370” for “WLS-052”, “ERS12561793” for “ERS12561747”; settings: 2 µM
[14] = as §1, with “WLS-350” for “WLS-052”, “ERS12561789” for “ERS12561747”; settings: 2 µM
[15] = human gut metagenome, 24 h, 2 µM; remark: listed apart in the source
[16] = as §1, with “Z-007” for “WLS-052”, “rat” for “human”, “ERS12561807” for “ERS12561747”; settings: 2 µM
[17] = as §1, with “Z-013” for “WLS-052”, “rabbit” for “human”, “ERS12561813” for “ERS12561747”; settings: 2 µM
[18] = human gut metagenome, 24 h, 2 µM; remark: listed apart in the source
[19] = human gut metagenome, 24 h, 2 µM; remark: listed apart in the source
[20] = as §1, with “Z-006” for “WLS-052”, “mouse” for “human”, “ERS12561806” for “ERS12561747”; settings: 2 µM
Further: call rule not given here.

C#C[C@]1(OC(C)=O)CC[C@H]2[C@@H]3CCC4=C/C(=N/O)CC[C@@H]4[C@H]3CC[C@@]21CC [NORGESTIMATE]
Bacterial Biotransformation [1]: Compound NOT metabolized | Bacterial Biotransformation [2]: Compound NOT metabolized | Bacterial Biotransformation [3]: Compound metabolized | Bacterial Biotransformation [4]: Compound metabolized | Bacterial Biotransformation [5]: Compound metabolized | Bacterial Biotransformation [6]: Compound NOT metabolized | Bacterial Biotransformation [7]: Compound NOT metabolized | Bacterial Biotransformation [8]: Compound NOT metabolized | Bacterial Biotransformation [9]: Compound metabolized | Bacterial Biotransformation [10]: Compound NOT metabolized | Bacterial Biotransformation [11]: Compound metabolized | Bacterial Biotransformation [12]: Compound metabolized | Bacterial Biotransformation [13]: Compound NOT metabolized | Bacterial Biotransformation [14]: Compound metabolized | Bacterial Biotransformation [15]: Compound metabolized | Bacterial Biotransformation [16]: Compound NOT metabolized | Bacterial Biotransformation [17]: Compound NOT metabolized | Bacterial Biotransformation [18]: Compound NOT metabolized | Bacterial Biotransformation [19]: Compound metabolized | Bacterial Biotransformation [20]: Compound NOT metabolized

CN1CCC(OC(c2ccccc2)c2ccccc2)CC1
Bacterial Biotransformation [1]: Compound NOT metabolized | Bacterial Biotransformation [2]: Compound metabolized | Bacterial Biotransformation [3]: Compound NOT metabolized | Bacterial Biotransformation [4]: Compound NOT metabolized | Bacterial Biotransformation [5]: Compound NOT metabolized | Bacterial Biotransformation [6]: Compound NOT metabolized | Bacterial Biotransformation [7]: Compound NOT metabolized | Bacterial Biotransformation [8]: Compound NOT metabolized | Bacterial Biotransformation [9]: Compound NOT metabolized | Bacterial Biotransformation [10]: Compound NOT metabolized | Bacterial Biotransformation [11]: Compound NOT metabolized | Bacterial Biotransformation [12]: Compound NOT metabolized | Bacterial Biotransformation [13]: Compound metabolized | Bacterial Biotransformation [14]: Compound NOT metabolized | Bacterial Biotransformation [15]: Compound NOT metabolized | Bacterial Biotransformation [16]: Compound NOT metabolized | Bacterial Biotransformation [17]: Compound NOT metabolized | Bacterial Biotransformation [18]: Compound metabolized | Bacterial Biotransformation [19]: Compound metabolized | Bacterial Biotransformation [20]: Compound NOT metabolized

CCS(=O)(=O)CCn1c([N+](=O)[O-])cnc1C [TINIDAZOLE]
Bacterial Biotransformation [1]: Compound metabolized | Bacterial Biotransformation [2]: Compound metabolized | Bacterial Biotransformation [3]: Compound metabolized | Bacterial Biotransformation [4]: Compound metabolized | Bacterial Biotransformation [5]: Compound metabolized | Bacterial Biotransformation [6]: Compound metabolized | Bacterial Biotransformation [7]: Compound metabolized | Bacterial Biotransformation [8]: Compound metabolized | Bacterial Biotransformation [9]: Compound metabolized | Bacterial Biotransformation [10]: Compound metabolized | Bacterial Biotransformation [11]: Compound metabolized | Bacterial Biotransformation [12]: Compound metabolized | Bacterial Biotransformation [13]: Compound metabolized | Bacterial Biotransformation [14]: Compound metabolized | Bacterial Biotransformation [15]: Compound metabolized | Bacterial Biotransformation [16]: Compound metabolized | Bacterial Biotransformation [17]: Compound metabolized | Bacterial Biotransformation [18]: Compound metabolized | Bacterial Biotransformation [19]: Compound metabolized | Bacterial Biotransformation [20]: Compound metabolized

C=CC[C@@H]1/C=C(\C)C[C@H](C)C[C@H](OC)[C@H]2O[C@@](O)(C(=O)C(=O)N3CCCC[C@H]3C(=O)O[C@H](/C(C)=C/[C@@H]3CC[C@@H](O)[C@H](OC)C3)[C@H](C)[C@@H](O)CC1=O)[C@H](C)C[C@@H]2OC.O [TACROLIMUS]
Bacterial Biotransformation [1]: Compound metabolized | Bacterial Biotransformation [2]: Compound NOT metabolized | Bacterial Biotransformation [3]: Compound metabolized | Bacterial Biotransformation [4]: Compound metabolized | Bacterial Biotransformation [5]: Compound metabolized | Bacterial Biotransformation [6]: Compound NOT metabolized | Bacterial Biotransformation [7]: Compound metabolized | Bacterial Biotransformation [8]: Compound NOT metabolized | Bacterial Biotransformation [9]: Compound metabolized | Bacterial Biotransformation [10]: Compound metabolized | Bacterial Biotransformation [11]: Compound NOT metabolized | Bacterial Biotransformation [12]: Compound metabolized | Bacterial Biotransformation [13]: Compound metabolized | Bacterial Biotransformation [14]: Compound NOT metabolized | Bacterial Biotransformation [15]: Compound metabolized | Bacterial Biotransformation [16]: Compound NOT metabolized | Bacterial Biotransformation [17]: Compound NOT metabolized | Bacterial Biotransformation [18]: Compound metabolized | Bacterial Biotransformation [19]: Compound metabolized | Bacterial Biotransformation [20]: Compound NOT metabolized

CN(CCOc1ccc(CC2SC(=O)NC2=O)cc1)c1ccccn1.O=C(O)/C=C\C(=O)O (stereo not given) [ROSIGLITAZONE MALEATE]
Bacterial Biotransformation [1]: Compound NOT metabolized | Bacterial Biotransformation [2]: Compound NOT metabolized | Bacterial Biotransformation [3]: Compound NOT metabolized | Bacterial Biotransformation [4]: Compound NOT metabolized | Bacterial Biotransformation [5]: Compound NOT metabolized | Bacterial Biotransformation [6]: Compound NOT metabolized | Bacterial Biotransformation [7]: Compound NOT metabolized | Bacterial Biotransformation [8]: Compound NOT metabolized | Bacterial Biotransformation [9]: Compound metabolized | Bacterial Biotransformation [10]: Compound metabolized | Bacterial Biotransformation [11]: Compound NOT metabolized | Bacterial Biotransformation [12]: Compound NOT metabolized | Bacterial Biotransformation [13]: Compound metabolized | Bacterial Biotransformation [14]: Compound metabolized | Bacterial Biotransformation [15]: Compound NOT metabolized | Bacterial Biotransformation [16]: Compound NOT metabolized | Bacterial Biotransformation [17]: Compound NOT metabolized | Bacterial Biotransformation [18]: Compound NOT metabolized | Bacterial Biotransformation [19]: Compound metabolized | Bacterial Biotransformation [20]: Compound NOT metabolized

N=C(N)NC(=O)Cc1c(Cl)cccc1Cl [GUANFACINE]
Bacterial Biotransformation [1]: Compound NOT metabolized | Bacterial Biotransformation [2]: Compound NOT metabolized | Bacterial Biotransformation [3]: Compound NOT metabolized | Bacterial Biotransformation [4]: Compound NOT metabolized | Bacterial Biotransformation [5]: Compound NOT metabolized | Bacterial Biotransformation [6]: Compound NOT metabolized | Bacterial Biotransformation [7]: Compound NOT metabolized | Bacterial Biotransformation [8]: Compound NOT metabolized | Bacterial Biotransformation [9]: Compound NOT metabolized | Bacterial Biotransformation [10]: Compound NOT metabolized | Bacterial Biotransformation [11]: Compound NOT metabolized | Bacterial Biotransformation [12]: Compound NOT metabolized | Bacterial Biotransformation [13]: Compound NOT metabolized | Bacterial Biotransformation [14]: Compound NOT metabolized | Bacterial Biotransformation [15]: Compound NOT metabolized | Bacterial Biotransformation [16]: Compound NOT metabolized | Bacterial Biotransformation [17]: Compound NOT metabolized | Bacterial Biotransformation [18]: Compound NOT metabolized | Bacterial Biotransformation [19]: Compound NOT metabolized | Bacterial Biotransformation [20]: Compound NOT metabolized

CCN1CCCC1CNC(=O)c1cc(S(=O)(=O)CC)c(N)cc1OC (stereo not given) [AMISULPRIDE]
Bacterial Biotransformation [1]: Compound NOT metabolized | Bacterial Biotransformation [2]: Compound NOT metabolized | Bacterial Biotransformation [3]: Compound NOT metabolized | Bacterial Biotransformation [4]: Compound NOT metabolized | Bacterial Biotransformation [5]: Compound NOT metabolized | Bacterial Biotransformation [6]: Compound NOT metabolized | Bacterial Biotransformation [7]: Compound NOT metabolized | Bacterial Biotransformation [8]: Compound NOT metabolized | Bacterial Biotransformation [9]: Compound NOT metabolized | Bacterial Biotransformation [10]: Compound NOT metabolized | Bacterial Biotransformation [11]: Compound NOT metabolized | Bacterial Biotransformation [12]: Compound NOT metabolized | Bacterial Biotransformation [13]: Compound NOT metabolized | Bacterial Biotransformation [14]: Compound NOT metabolized | Bacterial Biotransformation [15]: Compound NOT metabolized | Bacterial Biotransformation [16]: Compound NOT metabolized | Bacterial Biotransformation [17]: Compound NOT metabolized | Bacterial Biotransformation [18]: Compound metabolized | Bacterial Biotransformation [19]: Compound metabolized | Bacterial Biotransformation [20]: Compound NOT metabolized
